Reference: patent US8603968B2, “Cyclic peptides comprising at least one aza-β3-aminoacyl residue and their uses” (Centre National de la Recherche Scientifique, priority 2007, dated 2013)
≈ marks a conversion by molar mass, not a printed value.

Columns and labels:
[1] = test system: sheep erythrocytes; assay: Haemolytic activity on sheep erythrocytes; format: cell-based; details: at the doses tested, 1 hour at 37° C.
Procedure: The haemolytic activity of the pseudopeptides is tested on sheep blood cells. The sheep erythrocytes are washed three times with a phosphate buffer saline [PBS buffer (pH 7.4)] by 5 minutes' centrifugation at 900 g and the final pellet is suspended in PBS. For the concentration of the erythrocyte solution, a concentration of erythrocytes corresponding to OD540 nm is established, and for the control well 100% haemolysis in the presence of 0.8 Triton X-100. The solutions of the different pseudopeptides diluted in water (100 μL) are arranged in a 96-well plate. 50 μL, of PBS 2× buffer solution then 50 μL of sheep erythrocyte solution is added to these solutions in order to produce a final volume of 200 μL. The suspensions obtained are incubated for 1 hour at 37° C. The samples are then centrifuged at 500 g for 5 min. 130 μL of supernatant of each sample is transferred to a new 96-well plate. The release of haemoglobin is quantified by measuring the absorbance at 540 nm of the supernatant by means of a microplate reader. The controls corresponding to the absence of haemolysis (white) and 100% haemolysis involve, respectively, the addition of 100 μL of PBS buffer and 100 μL of a 2% Triton X-100 solution to the wells containing 100 μL of saline erythrocyte solution (50 μL of PBS 2× and 50 μL of blood cell solution). Each measurement is carried out in triplicate.

[2] = test system: Streptococcus aureus; assay: Antibacterial activity in poor medium enriched with beef extract PBB (MIC, MBC); format: cell-based; details: increasing doses (FIG. 3)
Procedure: (§1) The tests were carried out on Gram-negative bacterial strains of Group 2 (pathogens): Escherichia coli, Salmonella thyphimurium, Pseudomonas aeruginosa, Klebsiella pneumonie and on Gram-positive strains: Bacillus megaterium (group 1) and […] (group 2).
(§2) The bacteria are incubated in a PB poor medium in the case of the bacteria: Escherichia coli, Pseudomonas aeruginosa, Klebsiella pneumoniae, Bacillus megaterium and in a poor medium enriched with beef extract PBB in the case of two other bacteria: […] and Salmonella thyphimurium with increasing concentrations of peptides or analogues ranging from 1 to 320 μg/ml. This test is carried out in 96-well microplates. After incubation for 18 hours at 30° C. or 37° C., the optical density of the microplates is read at 595 nm in order to evaluate the bacterial growth and determine the minimum inhibitory concentration (MIC) for each molecule tested. Each measurement is performed in triplicate.
(§3) Moreover, the minimum bactericidal concentration (MBC) is determined by plating the contents of the wells where there is an absence of bacterial growth on dishes containing rich media (Luria broth or (LB) or Brain Heart Infusion (BHi). The MBC corresponds to the concentration at which no bacterial colony is detected after incubation for 24 hours at 30 or 37° C.

[3] = test system: Salmonella thyphimurium; assay: Antibacterial activity in poor medium enriched with beef extract PBB; format: cell-based; details: increasing doses (FIG. 4)
Procedure: as §1, §2, §3

[4] = test system: Gram-negative bacteria (E. coli to A. caviae); assay: Antibacterial activity in TSB rich medium (MIC), Gram-negative bacteria; format: cell-based; details: 48 hours, at the concentrations tested (0.78-100 μM)
Procedure: The tests were carried out on Gram-negative bacterial strains: Escherichia coli ATCC 25922, Salmonella enterica ATCC 13076, Pseudomonas aeruginosa ATCC 27853, Klebsiella oxytoca CIP 7932, Enterobacter aerogenes ATCC 13048 and Aeromonas caviae ATCC 15468 and on Gram-positive strains: Staphylococcus aureus ATCC 25923, Enterococcus faecalis CIP 186, Streptococcus equinus ATCC 5623, Listeria monocytogenes SOR 100, Bacillus megaterium ATCC 10778, Lactococcus gaviae ATCC 43921, Micrococcus luteus ATCC 10240.
The bacteria (10^5 CFU/mL) are incubated in a TSB (Tryptic Soy Broth) rich medium with increasing concentrations of cyclopseudopeptides (0.78, 3.12, 6.25, 12.5, 25, 50, 100 μM). This test is carried out in 96-well microplates. After incubation for 48 hours at 20° C. or 37° C., the optical density of the microplates is read at 595 nm in order to evaluate the bacterial growth and determine the minimum inhibitory concentration (MIC) for each molecule tested. Each measurement is carried out in triplicate.

[5] = test system: rabbit erythrocytes; assay: Haemolytic activity on rabbit erythrocytes; format: cell-based
Procedure: The haemolytic activity of the pseudopeptides is tested on rabbit blood cells. Fresh rabbit erythrocytes are washed three times with a phosphate buffer saline [PBS buffer (pH 7.4)] by centrifugation for 5 min at 900 g and the final pellet is suspended in PBS. The NafNaf pseudopeptide solutions diluted in PBS (90 μL) are arranged in a 96-well plate. 90 μL of 2% rabbit erythrocyte solution (v/v) is added to these solutions to give a final volume of 180 μL and a concentration of 1% (v/v) blood cells. The suspensions obtained are incubated for 1 hour at 37° C. The samples are then centrifuged at 500 g for 5 min. 100 μL of supernatant of each sample is transferred into a new 96-well plate. The release of the haemoglobin is quantified by measuring the absorbance at 415 nm of the supernatant using a microplate reader. The controls corresponding to the absence of haemolysis (white) and to a 100% haemolysis consist, respectively, of the addition of 90 μL of PBS buffer and 90 μL of a 2% solution of Triton X-100 to the 90 μL of 2% blood cell solution. Each measurement is carried out in triplicate.

[6] = In vitro cytotoxicity (MTT); format: cell-based, hamster; details: hamster, CHO-K1 cells; read-out: lethal dose for 50% of the cells (LD50)
Procedure: (§4) The effects of the different cyclic pseudopeptides on cell growth are evaluated in sterile 96-well plates. The cells are seeded at 5.10^5 cells per mL of culture medium (100 μL per well). The different pseudopeptides (10 μL per well) diluted in a saline solution are added at the time of seeding at the appropriate concentration (from 1 μg/mL to 1 mg/mL). The incubations are carried out at 37° C. under a humidified atmosphere containing 5% CO2 for 24 or 48 hours.
(§5) After exposure to the compounds, the cell growth is assessed by measuring the formation of formazan from 3-(4,5-dimethylthiazol-2-yl)-2,5-diphenyltetrazolium (MTT). The absorbance at 540 nm is measured by a Titertek Multiscan MCC/340 microplate reader. Each measurement is carried out in triplicate.

[7] = test system: hamster cells (CHO-K1); assay: In vitro cytotoxicity (MTT); format: cell-based; details: at 10 μg/mL
Procedure: as §4, §5

[8] = test system: mouse cell line ascites 302-sp; assay: In vitro cytotoxicity (MTT); format: cell-based
Procedure: as §4, §5

[9] = test system: rabbit erythrocytes; details: comparison peptide alternating L and D amino acids; cited from earlier work

For `CC(C)C[C@@H]1NC(=O)CN(Cc2ccc(F)c3ccccc23)NC(=O)[C@H](CC(C)C)NC(=O)CN(Cc2cccc3ccccc23)NC(=O)[C@H](CCCCN)NC(=O)CN(CCCCN)NC1=O` [4Fluo1Naf, c[-Leu-azaβ^3Lys-Lys-azaβ^3(1)-Nal-Leu-azaβ^3(4F-1)Nal-]], the haemolytic activity [1] was “no significant haemolytic activity”.
For `CC1(C)S[C@@H]2[C@H](NC(=O)[C@H](N)c3ccccc3)C(=O)N2[C@H]1C(=O)O` [Ampicillin], the “concentration at which active” value [2] was 1 µg/mL and the “concentration at which active” value [3] was 1 µg/mL.
In the case of `CCCCCCCCCCCCN1CC(=O)N[C@@H](Cc2c[nH]c3ccccc23)C(=O)NN(Cc2cccc3ccccc23)CC(=O)N[C@@H](CCCCN)C(=O)NN(CCCCN)CC(=O)N[C@@H](CC2CCCCC2)C(=O)N1` [Chado, c[-Lys-azaβ^3Lys-Cha-azaβ^3Amy-Trp-azaβ^3(1)Nal-]], the “activity on the Gram-negative bacteria” value [4] is reported as “no activity”.
With `N=C(N)NCCC[C@@H]1NC(=O)CN(CC2CCCCC2)NC(=O)[C@H](Cc2c[nH]c3ccccc23)NC(=O)CN(Cc2ccc(F)cc2)NC(=O)[C@H](CC2CCCCC2)NC(=O)CN(CCCCN)NC1=O` [FluoKil, c[-Arg-azaβ^3Lys-Cha-azaβ^3(4)Fpa-Trp-azaβ^3Cha-]] the haemolytic activity [1] was “no significant haemolytic activity”.
With `CC(C)C[C@@H]1NC(=O)CN(Cc2cccc3ccccc23)NC(=O)[C@H](CC(C)C)NC(=O)CN(Cc2cccc3ccccc23)NC(=O)[C@H](CCCCN)NC(=O)CN(CCCCN)NC1=O` [NafNaf, c[-Leu-azaβ^3Lys-Lys-azaβ^3(1)Nal-Leu-azaβ^3(1)Nal-]] the “action on the erythrocytes” value ([5]; at 20 μg/mL) was “no action”, the haemolytic activity ([5]; at the concentrations at which it is bactericidal) was “no haemolytic activity” and the CC50 [6] was roughly 40 µg/mL (≈ 43.4 µM). For the same compound, the cytotoxic effect [7] was “no cytotoxic effect”, the LD50 ([8]; ascites 302-sp, compared with hamster cells) was “slightly lower” and the “effect on the cell viability” value ([8]; at 10 μg/mL) was “slight effect”. The haemolytic activity [1] was “no significant haemolytic activity”.
For “[-(D)Lys-(L)Lys-(D)Leu-(L)Trp-(D)Leu-(L)Trp-]”, the “concentration at which haemolytic” value [9] is listed as 80 µg/mL.
